# Laboratory results as given in US20020143064A1, “Novel use of compounds of the chalcones class” (priority 2000, published 2002).
# Tested on: HDMEC cells (Human Dermal Microvascular Endothelial Cells)
# Assay: Detachment of endothelial cells in vitro (HDMEC detachment test)
# Assay type: cell-based
# Conditions: Endothelial cell, 2 h, 1 μM compound, two hours treatment, plates precoated with fibronectin, vitronectin or gelatin, calcein fluorescence, relative to untreated control, mean of six samples, >=15% regarded as significant, read-out: Percentage of detachment of HDMEC cells induced by 1 μM of compound
# Protocol: A test for the determination of the detachment of endothelial cells has been developed in order to select products with respect to their “in vitro” activity. Such test was employed in the present invention. By way of this test, the endothelial cells were inoculated in plates, the bottom of which were covered with at least one binding agent, for example, chosen from gelatin, fibronectin, and vitronectin. The inoculated endothelial cells were then cultured. The cultured endothelial cells were treated with a medium comprising the test compound. The cells were then labeled with a fluorescent substance. The detached cells were removed by washing; and the fluorescence of the remaining cells was counted with a fluorimeter.
# This test measures the detachment of endothelial cells cultured on substrata based on at least one binding agent, for example, chosen from fibronectin, vitronectin, and gelatin. Generally, one day after the cells were seeded in plates, which comprised, for example, 96 wells, the culture medium was replaced by a medium, which comprised the test compound in the absence of serum. The same preparation was prepared six times at three different concentrations ([…]) and the control was prepared six times without addition of antivascular product. After the cells were treated for two hours with the test substance, the cells were labeled with calcein AM (1.6 μg/ml) in culture medium supplemented with 0.1% of BSA. The cells that detached were removed by washing with culture medium comprising 0.1% of bovine serum albumin. 100 μl of medium were then added to each well. The fluorescence of the remaining cells was counted with a fluorimeter. The data obtained is expressed with respect to the control (untreated cells).
# The evaluation of the detachment of endothelial cells in vitro was determined in the following way: HDMEC cells (Human Dermal Microvascular Endothelial Cells, Promocell, c-122102) were cultured in an ECGM-MV medium which comprised 5% of foetal calf serum, growth factors (EGF 10 ng/ml, hydrocortisone 1 μg/ml, 0.4% growth supplement with heparin) and antibiotics (amphotericin 50 ng/ml, gentamicin 50 μg/ml). For the detachment test, the HDMECs were inoculated at 5000 cells in clear-bottomed 96-well plates (Costar) precoated with fibronectin (10 μg/ml) or vitronectin (1 μg/ml) or gelatin. Twenty four hours later, the culture medium was replaced with ECGM-MV 0.1% BSA medium comprising the products shown. The concentrations tested were 0.1, 0.3 and 1 μM for each product. After treating for two hours, the cells were labeled for one hour with calcein (1.6 μg/ml, Molecular Probes) in ECGM-MV 0.1% BSA medium. The detached cells were subsequently removed by washing with ECGM-MV 0.1% BSA medium; 100 μl of medium was added to each well. The fluorescence of the cells which remained attached to the substratum of the well were counted using a fluorimeter, Spectrafluor Plus (Tecan, excitation 485 nm and emission 535 nm).
# A cell detachment effect of greater than or equal to 15% is regarded as significant.
row,Structure (SMILES),inhibition at 1 µM [%]
1,"COc1ccc(OC)c(C(=O)/C=C/c2ccc(NC(C)=O)cc2)c1 [Comparative Example 1, reference compound]",2
2,"CCCCNc1ccc(/C=C(\C)C(=O)c2cc(OC)c(OC)c(OC)c2)cc1 [Comparative Example 2, reference compound]",6
3,COc1ccc(OC)c(C(=O)/C(C)=C/c2ccc(N(C)C)cc2)c1 [Example 1],23 to 49
4,CCN(CC)c1ccc(/C=C(\C)C(=O)c2cc(OC)ccc2OC)cc1 [Example 2],20 to 23
5,COc1ccc(OC)c(C(=O)/C(Cl)=C/c2ccc(N(C)C)cc2)c1 [Example 3],25 to 29
6,COc1ccc(OC)c(C(=O)/C=C/c2ccc(N(C)C)cc2)c1 [Example 4],18 to 19
7,COc1cc(C(=O)/C(C)=C/c2ccc(N(C)C)cc2)cc(OC)c1OC [Example 5],15
8,CCN(CC)c1ccc(/C=C(\C)C(=O)c2ccc(OC)c(OC)c2OC)cc1 [Example 6],35 to 41
9,COc1ccc(C(=O)/C(Cl)=C/c2ccc(N(C)C)cc2)c(OC)c1OC [Example 7],22 to 42
10,COc1cc(C(=O)/C(Cl)=C/c2ccc(N(C)C)cc2)cc(OC)c1OC [Example 8],23 to 43
11,CCN(CC)c1ccc(/C=C/C(=O)c2ccc(OC)c(OC)c2OC)cc1 [Example 9],19
12,CC/C(=C\c1ccc(N(C)C)cc1)C(=O)c1ccc(OC)c(OC)c1OC [Example 10],15
13,CCN(CC)c1ccc(/C=C/C(=O)c2cc(OC)c(OC)c(OC)c2)cc1 [Example 11],20
14,COc1ccc(C(=O)/C(Br)=C/c2ccc(N(C)C)cc2)c(OC)c1OC [Example 13],23 to 34
15,COc1ccc(C(=O)/C=C/c2ccc(N(C)C)cc2)c(OC)c1OC [Example 14],18 to 20
